Assay results: patent US10208089B2, “Modulation of complement activity” (priority 2014, dated 2019)
Starred links: 1 amine or outer side, 2 acyl side, 3 side chain; linkers in the order of their positions; H or OH if unused. Positions of bridges follow the written chain, without caps; N, C: chain ends. Non-standard residues stand in square brackets, D forms with d. Residues, ends and D or L forms follow the SMILES beside them. Trp(7-aza) = N[C@@H](Cc1c[nH]c2ncccc12)C(=O)O; NMePhe(4-F) = CN[C@@H](Cc1ccc(F)cc1)C(=O)O; mXylylene = c1cc(C[*:1])cc(C[*:2])c1; pXylylene = c1cc(C[*:2])ccc1C[*:1]; Chg = N[C@H](C(=O)O)C1CCCCC1; Phg = N[C@H](C(=O)O)c1ccccc1; Tle = CC(C)(C)[C@H](N)C(=O)O; NMeS = CN[C@@H](CO)C(=O)O; hCys = N[C@@H](CCS)C(=O)O; Nva = CCC[C@H](N)C(=O)O

molecular target: C5 (Homo sapiens, UniProt P01031); test: Human hemolysis assay (RBC lysis assay using complete human sera); assay type: cell-based; design: with complete human sera (Complement Technology, Tyler Tex.) and polypeptides; tissue Complement Technology, Tyler Tex; host or cells: complete human serum; settings: 7-azatryptophan variant polypeptides of R3002; inhibition of red blood cell lysis
Sequence (P01031 19-1676): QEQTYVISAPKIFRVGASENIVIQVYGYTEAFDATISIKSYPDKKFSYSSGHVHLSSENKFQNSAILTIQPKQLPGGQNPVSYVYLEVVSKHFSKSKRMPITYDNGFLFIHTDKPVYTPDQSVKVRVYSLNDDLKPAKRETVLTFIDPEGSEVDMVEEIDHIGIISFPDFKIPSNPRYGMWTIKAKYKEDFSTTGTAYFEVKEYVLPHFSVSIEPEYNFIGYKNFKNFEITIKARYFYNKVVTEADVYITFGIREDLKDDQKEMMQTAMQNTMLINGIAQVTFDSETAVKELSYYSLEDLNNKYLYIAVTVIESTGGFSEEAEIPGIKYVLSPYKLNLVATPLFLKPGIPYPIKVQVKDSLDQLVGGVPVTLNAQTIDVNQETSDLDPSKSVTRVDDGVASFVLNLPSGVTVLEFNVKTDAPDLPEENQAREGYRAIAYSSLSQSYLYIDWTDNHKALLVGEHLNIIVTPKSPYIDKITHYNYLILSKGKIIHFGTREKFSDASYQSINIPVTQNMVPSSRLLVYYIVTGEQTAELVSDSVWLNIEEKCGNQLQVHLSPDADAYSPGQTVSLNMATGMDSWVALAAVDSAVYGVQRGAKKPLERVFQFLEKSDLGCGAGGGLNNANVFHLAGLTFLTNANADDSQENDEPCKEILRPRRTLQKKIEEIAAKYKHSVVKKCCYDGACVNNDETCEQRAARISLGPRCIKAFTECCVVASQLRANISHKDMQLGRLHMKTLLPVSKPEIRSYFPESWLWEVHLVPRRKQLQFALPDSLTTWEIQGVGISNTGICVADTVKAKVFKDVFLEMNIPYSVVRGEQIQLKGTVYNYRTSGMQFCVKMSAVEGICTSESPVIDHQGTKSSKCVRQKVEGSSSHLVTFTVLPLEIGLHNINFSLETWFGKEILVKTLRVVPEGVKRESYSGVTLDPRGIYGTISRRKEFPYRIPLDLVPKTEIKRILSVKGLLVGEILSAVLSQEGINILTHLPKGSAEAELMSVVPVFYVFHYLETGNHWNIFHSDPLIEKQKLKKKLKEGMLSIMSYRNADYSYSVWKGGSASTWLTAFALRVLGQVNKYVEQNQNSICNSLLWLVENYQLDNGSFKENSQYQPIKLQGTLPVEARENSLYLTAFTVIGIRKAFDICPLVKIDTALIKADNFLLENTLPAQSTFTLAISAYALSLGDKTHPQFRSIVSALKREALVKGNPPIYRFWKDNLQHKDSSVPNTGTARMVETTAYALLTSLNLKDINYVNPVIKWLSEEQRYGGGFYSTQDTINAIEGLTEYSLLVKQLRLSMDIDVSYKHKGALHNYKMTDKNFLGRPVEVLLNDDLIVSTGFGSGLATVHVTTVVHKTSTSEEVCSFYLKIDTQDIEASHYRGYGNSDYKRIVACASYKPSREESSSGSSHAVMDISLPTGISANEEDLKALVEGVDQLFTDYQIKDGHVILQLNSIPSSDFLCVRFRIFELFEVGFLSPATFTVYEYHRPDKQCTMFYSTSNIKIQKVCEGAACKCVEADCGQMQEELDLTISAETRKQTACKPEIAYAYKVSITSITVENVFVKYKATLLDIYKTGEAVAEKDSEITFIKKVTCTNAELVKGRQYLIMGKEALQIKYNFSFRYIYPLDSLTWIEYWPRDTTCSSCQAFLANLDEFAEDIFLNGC

Structure (SMILES) | IC50 [µM]
CCC[C@H](NC(=O)[C@@H](NC(=O)[C@@H]1CCCN1C(=O)[C@H](Cc1ccc(O)cc1)NC(=O)[C@H](CCC(=O)O)NC(=O)[C@@H](Cc1c[nH]c2ccccc12)NC(=O)[C@H](Cc1ccc(O)cc1)NC(=O)[C@H](CC(N)=O)NC(=O)[C@H](CCC(=O)O)NC(=O)[C@H](Cc1ccc(O)cc1)NC(C)=O)c1ccccc1)C(N)=O [Compound R3119, Ac-Y-E-N-Y-(D-Trp)-E-Y-P-Phg-Nvl-NH2] (Ac-YENY[dW]EYP[Phg][Nva]-NH2) | > 100

same assay, conditions: 7-azatryptophan variant polypeptides of R3008; inhibition of red blood cell lysis

Structure (SMILES) | IC50 [µM]
CCC[C@H](NC(=O)[C@@H]1CSCc2cccc(c2)CSC[C@H](NC(=O)[C@H](CCC)NC(C)=O)C(=O)N[C@@H](c2ccccc2)C(=O)N[C@@H]([C@@H](C)O)C(=O)N[C@H](Cc2c[nH]c3ccccc23)C(=O)N[C@@H](CCC(=O)O)C(=O)N[C@@H](Cc2ccc(O)cc2)C(=O)N(C)[C@@H](CO)C(=O)N[C@@H](Cc2c[nH]cn2)C(=O)N1)C(N)=O [Compound R3132, [mXylyl(2,10)]Ac-Nvl-C-Phg-T-(D-Trp)-E-Y-(N-Me)S-H-C-Nvl-NH2] (Ac-[Nva]C[Phg]T[dW]EY[NMeS]HC[Nva]-NH2; linker 2-10 via mXylylene) | > 100

same assay, conditions: inhibition of lysis of antibody-sensitized sheep erythrocytes, complete human sera

Structure (SMILES) | IC50 [µM]
CCC[C@H](NC(=O)[C@@H]1CSCc2cccc(c2)CSC[C@H](NC(=O)[C@H](CCC)NC(C)=O)C(=O)N[C@@H](c2ccccc2)C(=O)N[C@@H]([C@@H](C)O)C(=O)N[C@@H](Cc2c[nH]c3ncccc23)C(=O)N[C@@H](CCC(N)=O)C(=O)N[C@@H](Cc2ccc(O)cc2)C(=O)N(C)[C@@H](CO)C(=O)N[C@@H](C)C(=O)N1)C(N)=O [Compound R3098, [mXylyl(2,10)]Ac-Nvl-C-Phg-T-azaTrp-Q-Y-(N-Me)S-A-C-Nvl-NH2] (Ac-[Nva]C[Phg]T[Trp(7-aza)]QY[NMeS]AC[Nva]-NH2; linker 2-10 via mXylylene) | > 100
CCC[C@H](NC(=O)[C@@H]1CSCc2cccc(c2)CSC[C@H](NC(=O)[C@H](CCC)NC(C)=O)C(=O)N[C@@H](c2ccccc2)C(=O)N[C@H](C)C(=O)N[C@@H](Cc2c[nH]c3ncccc23)C(=O)N[C@@H](CCC(=O)O)C(=O)N[C@@H](Cc2ccc(O)cc2)C(=O)N(C)[C@@H](CO)C(=O)N[C@@H](Cc2c[nH]cn2)C(=O)N1)C(N)=O [Compound R3133, [mXylyl(2,10)]Ac-Nvl-C-Phg-(D-Ala)-azaTrp-E-Y-(N-Me)S-H-C-Nvl-NH2] (Ac-[Nva]C[Phg][dA][Trp(7-aza)]EY[NMeS]HC[Nva]-NH2; linker 2-10 via mXylylene) | > 75
CCC[C@H](NC(=O)[C@@H]1CCSCc2ccc(cc2)CSC[C@H](NC(=O)[C@H](CCC)NC(C)=O)C(=O)N[C@@H](c2ccccc2)C(=O)N[C@@H]([C@@H](C)O)C(=O)N[C@@H](Cc2c[nH]c3ncccc23)C(=O)N[C@@H](CCC(=O)O)C(=O)N[C@@H](Cc2ccc(O)cc2)C(=O)N(C)[C@@H](CO)C(=O)N[C@@H](Cc2c[nH]cn2)C(=O)N1)C(N)=O [Compound R3106, [pXylyl(2,10)]Ac-Nvl-C-Phg-T-azaTrp-E-Y-(N-Me)S-H-homoC-Nvl-NH2] (Ac-[Nva]C[Phg]T[Trp(7-aza)]EY[NMeS]H[hCys][Nva]-NH2; linker 2-10 via pXylylene) | > 5
CCC[C@H](NC(=O)[C@@H]1CSCc2cccc(c2)CSC[C@H](NC(=O)[C@H](CCC)NC(C)=O)C(=O)N[C@@H](c2ccccc2)C(=O)N[C@@H]([C@@H](C)O)C(=O)N[C@@H](Cc2c[nH]c3ncccc23)C(=O)N[C@@H](CCC(=O)O)C(=O)N[C@@H](Cc2ccc(O)cc2)C(=O)N(C)[C@@H](CO)C(=O)N[C@H](C)C(=O)N1)C(N)=O [Compound R3135, [mXylyl(2,10)]Ac-Nvl-C-Phg-T-azaTrp-E-Y-(N-Me)S-(D-Ala)-C-Nvl-NH2] (Ac-[Nva]C[Phg]T[Trp(7-aza)]EY[NMeS][dA]C[Nva]-NH2; linker 2-10 via mXylylene) | > 25
CCC[C@H](NC(=O)[C@@H]1CSCc2ccc(cc2)CSCC[C@H](NC(=O)[C@H](CCC)NC(C)=O)C(=O)N[C@@H](c2ccccc2)C(=O)N[C@@H]([C@@H](C)O)C(=O)N[C@@H](Cc2c[nH]c3ncccc23)C(=O)N[C@@H](CCC(=O)O)C(=O)N[C@@H](Cc2ccc(O)cc2)C(=O)N(C)[C@@H](CO)C(=O)N[C@@H](Cc2c[nH]cn2)C(=O)N1)C(N)=O [Compound R3104, [pXylyl(2,10)]Ac-Nvl-homoC-Phg-T-azaTrp-E-Y-(N-Me)S-H-C-Nvl-NH2] (Ac-[Nva][hCys][Phg]T[Trp(7-aza)]EY[NMeS]HC[Nva]-NH2; linker 2-10 via pXylylene) | > 2
CCC[C@H](NC(=O)[C@@H]1CSCc2cccc(c2)CSC[C@H](NC(=O)[C@H](CCC)NC(C)=O)C(=O)N[C@@H](c2ccccc2)C(=O)N[C@@H]([C@@H](C)O)C(=O)N[C@@H](Cc2c[nH]c3ncccc23)C(=O)N[C@@H](CCC(=O)O)C(=O)N[C@@H](Cc2ccccc2)C(=O)N(C)[C@@H](CO)C(=O)N[C@@H](C)C(=O)N1)C(N)=O [Compound R3100, [mXylyl(2,10)]Ac-Nvl-C-Phg-T-azaTrp-E-F-(N-Me)S-A-C-Nvl-NH2] (Ac-[Nva]C[Phg]T[Trp(7-aza)]EF[NMeS]AC[Nva]-NH2; linker 2-10 via mXylylene) | 0.626
CCC[C@H](N)C(=O)N[C@H]1CSCc2cccc(c2)CSC[C@@H](C(N)=O)NC(=O)CNC(=O)[C@H](Cc2ccc(F)cc2)N(C)C(=O)[C@H](Cc2c[nH]cn2)NC(=O)[C@H](CO)N(C)C(=O)[C@H](Cc2ccc(F)cc2)N(C)C(=O)[C@H](c2ccccc2)NC(=O)[C@H](CO)N(C)C(=O)[C@H](Cc2ccc(O)cc2)NC1=O [Compound R3075, [mXylyl(2,11)]Nvl-C-Y-(N-Me)S-Phg-(N-Me-4-F)Phe-(N-Me)S-H-(N-Me-4-F)Phe-G-C-NH2] (H-[Nva]CY[NMeS][Phg][NMePhe(4-F)][NMeS]H[NMePhe(4-F)]GC-NH2; linker 2-11 via mXylylene) | > 75
CCC[C@H](NC(=O)[C@@H]1CSCc2cccc(c2)CSC[C@H](NC(=O)[C@H](CCC)NC(C)=O)C(=O)N[C@@H](c2ccccc2)C(=O)N[C@@H]([C@@H](C)O)C(=O)N[C@H](Cc2c[nH]c3ccccc23)C(=O)N[C@@H](CCC(=O)O)C(=O)N[C@@H](Cc2ccc(O)cc2)C(=O)N(C)[C@@H](CO)C(=O)N[C@@H](Cc2c[nH]cn2)C(=O)N1)C(N)=O [Compound R3132, [mXylyl(2,10)]Ac-Nvl-C-Phg-T-(D-Trp)-E-Y-(N-Me)S-H-C-Nvl-NH2] (Ac-[Nva]C[Phg]T[dW]EY[NMeS]HC[Nva]-NH2; linker 2-10 via mXylylene) | > 100
CCC[C@H](NC(=O)[C@@H]1CSCc2cccc(c2)CSC[C@H](NC(=O)[C@H](CCC)NC(C)=O)C(=O)N[C@@H](c2ccccc2)C(=O)N[C@@H]([C@@H](C)O)C(=O)N[C@@H](Cc2c[nH]c3ncccc23)C(=O)N[C@@H](CCC(=O)O)C(=O)N[C@@H](C)C(=O)N(C)[C@@H](CO)C(=O)N[C@@H](Cc2c[nH]cn2)C(=O)N1)C(N)=O [Compound R3036, [mXylyl(2,10)]Ac-Nvl-C-Phg-T-azaTrp-E-A-(N-Me)S-H-C-Nvl-NH2] (Ac-[Nva]C[Phg]T[Trp(7-aza)]EA[NMeS]HC[Nva]-NH2; linker 2-10 via mXylylene) | > 50
CCC[C@H](NC(=O)[C@@H]1CSCc2cccc(c2)CSC[C@H](NC(=O)[C@@H](NC(C)=O)C(C)C)C(=O)N[C@@H](c2ccccc2)C(=O)N[C@@H]([C@@H](C)O)C(=O)N[C@@H](Cc2c[nH]c3ncccc23)C(=O)N[C@@H](CCC(=O)O)C(=O)N[C@@H](Cc2ccc(O)cc2)C(=O)N(C)[C@@H](CO)C(=O)N[C@@H](C)C(=O)N1)C(N)=O [Compound R3083, [mXylyl(2,10)]Ac-V-C-Phg-T-azaTrp-E-Y-(N-Me)S-A-C-Nvl-NH2] (Ac-VC[Phg]T[Trp(7-aza)]EY[NMeS]AC[Nva]-NH2; linker 2-10 via mXylylene) | > 25
CCC[C@H](NC(=O)[C@@H](NC(=O)[C@@H]1CCCN1C(=O)[C@H](Cc1ccc(O)cc1)NC(=O)[C@H](CCC(=O)O)NC(=O)[C@@H](Cc1c[nH]c2ccccc12)NC(=O)[C@H](Cc1ccc(O)cc1)NC(=O)[C@H](CC(N)=O)NC(=O)[C@H](CCC(=O)O)NC(=O)[C@H](Cc1ccc(O)cc1)NC(C)=O)c1ccccc1)C(N)=O [Compound R3119, Ac-Y-E-N-Y-(D-Trp)-E-Y-P-Phg-Nvl-NH2] (Ac-YENY[dW]EYP[Phg][Nva]-NH2) | > 100
CCC[C@H](NC(=O)[C@@H]1CSCc2cccc(c2)CSC[C@H](NC(=O)[C@H](CCC)NC(C)=O)C(=O)N[C@@H](c2ccccc2)C(=O)N[C@@H](C)C(=O)N[C@@H](Cc2c[nH]c3ncccc23)C(=O)N[C@@H](CCC(=O)O)C(=O)N[C@@H](Cc2ccc(O)cc2)C(=O)N(C)[C@@H](CO)C(=O)N[C@@H](Cc2c[nH]cn2)C(=O)N1)C(N)=O [Compound R3033, [mXylyl(2,10)]Ac-Nvl-C-Phg-A-azaTrp-E-Y-(N-Me)S-H-C-Nvl-NH2] (Ac-[Nva]C[Phg]A[Trp(7-aza)]EY[NMeS]HC[Nva]-NH2; linker 2-10 via mXylylene) | 0.131
CCC[C@H](NC(=O)[C@@H]1CSCc2cccc(c2)CSC[C@H](NC(=O)[C@H](CCC)NC(C)=O)C(=O)N[C@@H](c2ccccc2)C(=O)N[C@@H]([C@@H](C)O)C(=O)N[C@@H](Cc2c[nH]c3ncccc23)C(=O)N[C@@H](CCC(=O)O)C(=O)N[C@@H](Cc2ccc(O)cc2)C(=O)N[C@@H](CO)C(=O)N[C@@H](C)C(=O)N1)C(N)=O [Compound R3084, [mXylyl(2,10)]Ac-Nvl-C-Phg-T-azaTrp-E-Y-S-A-C-Nvl-NH2] (Ac-[Nva]C[Phg]T[Trp(7-aza)]EYSAC[Nva]-NH2; linker 2-10 via mXylylene) | > 100
CCC[C@H](NC(C)=O)C(=O)N[C@@H](CCC)C(=O)N[C@@H](Cc1ccc(O)cc1)C(=O)N[C@@H](CCC(=O)O)C(=O)N[C@@H](CC(N)=O)C(=O)N[C@H](C(=O)N[C@@H](Cc1ccc(O)cc1)C(=O)N[C@@H](Cc1c[nH]c2ncccc12)C(=O)N[C@@H](CCC(=O)O)C(=O)N[C@@H](Cc1ccc(O)cc1)C(=O)N1CCC[C@H]1C(=O)N[C@H](C(=O)N[C@@H](CCC)C(=O)N[C@@H](CCCCN)C(N)=O)C1CCCCC1)C(C)(C)C [Compound R3072, Ac-Nvl-Nvl-Y-E-N-Tbg-Y-azaTrp-E-Y-P-Chg-Nvl-K-NH2] (Ac-[Nva][Nva]YEN[Tle]Y[Trp(7-aza)]EYP[Chg][Nva]K-NH2) | 0.0269
CCC[C@H](NC(=O)[C@@H]1CSCc2cccc(c2)CSC[C@H](NC(=O)[C@H](CCC)NC(=O)[C@H](Cc2ccc(O)cc2)NC(C)=O)C(=O)N[C@@H](c2ccccc2)C(=O)N[C@@H]([C@@H](C)O)C(=O)N[C@@H](Cc2c[nH]c3ncccc23)C(=O)N[C@@H](CCC(=O)O)C(=O)N[C@@H](Cc2ccc(O)cc2)C(=O)N(C)[C@@H](CO)C(=O)N[C@@H](Cc2c[nH]cn2)C(=O)N1)C(N)=O [Compound R3113, [mXylyl(3,11)]Ac-Y-Nvl-C-Phg-T-azaTrp-E-Y-(N-Me)S-H-C-Nvl-NH2] (Ac-Y[Nva]C[Phg]T[Trp(7-aza)]EY[NMeS]HC[Nva]-NH2; linker 3-11 via mXylylene) | > 5
CCC[C@H](NC(=O)[C@@H]1CSCc2cccc(c2)CSC[C@H](NC(=O)[C@H](CCC)NC(C)=O)C(=O)N[C@@H](C)C(=O)N[C@@H]([C@@H](C)O)C(=O)N[C@@H](Cc2c[nH]c3ncccc23)C(=O)N[C@@H](CCC(=O)O)C(=O)N[C@@H](Cc2ccc(O)cc2)C(=O)N(C)[C@@H](CO)C(=O)N[C@@H](Cc2c[nH]cn2)C(=O)N1)C(N)=O [Compound R3032, [mXylyl(2,10)]Ac-Nvl-C-A-T-azaTrp-E-Y-(N-Me)S-H-C-Nvl-NH2] (Ac-[Nva]CAT[Trp(7-aza)]EY[NMeS]HC[Nva]-NH2; linker 2-10 via mXylylene) | > 10
